The text below walks through data of patent publication US20250152601A1, “Compositions and Methods for the Treatment of Sexual Dysfunctions” (The Jonathan Hurt Living Trust, priority 2022, published 2025).

The subject of data set [1] is tactile sexual function (TSF). Put plainly: Self-measured tactile sexual function (TSF) scores C, CT, A, B, BM, BS after ingesting treatment substance(s).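 For all read-outs here: Self-rated by the single male inventor (about 65 kg) after oral intake, capsules unless noted, on the TSF scale, each one-unit score rise means roughly double the sensation intensity.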 The following applies: for C score / A score / B score: Table 47A, dose in mg per example: Phenibut 450, Homotaurine 50, 150, 200, 250; for C score: beverage and time as in Tables 37, 38, 39; for effect on TSF, stated in words: inventor; for TSF when both paroxetine and finasteride were ingested: during use of both drugs.
Source text: Some treatment substances were in liquid form when orally ingested. For the Working Examples herein all treatment substances were in capsule form unless otherwise noted in the Tables herein. […] It is contemplated that the mg per kilogram dose of treatment substances and/or the time from ingesting one or more treatment substances may vary from person to person for optimum improvement in treating a sexual dysfunction (e.g., an SRSS including reduced TSF or absent TSF). In some instances, it is contemplated that ingesting one treatment substance may be done at a different time than ingesting another treatment substance to optimize the effect in treating a sexual dysfunction.
For a male, the A score is the highest intensity of TSF just before the first muscle contraction of ejaculation, and the B score is the highest intensity of TSF just after the first muscle contraction of ejaculation.

The test system of another data set is ejaculation/orgasm. The data set can be described thus: Ejaculation scores D (strength of the muscle contractions during ejaculation) and DE (ease to achieve ejaculation), incl. FE/FO. The format is in vivo, human. The note with it: for effect on D/DE scores, stated in words: Examples with the positive cholinergic; for time after ingestion at which the increase in DE score may peak: before 60 minutes; for average D score / average DE score: when not combined with another listed positive cholinergic.

Structures can show the parent of a compound that is named as a salt.

Procedure for ejaculation/orgasm: Variations in TSF and other sexual responses were noticed after ingesting a treatment substance, and additional scores to describe these responses were recorded in some examples. In some examples the C score for TSF was localized only to the head (“glands”) of the penis when one or more C score measurements were taken prior to attempted or achieved ejaculation/orgasm. […] In some examples after ingesting a treatment substance, the speed of B score decrease from the first muscle contraction to the last muscle contraction of ejaculation was recorded as the “BS” score using terms such as “IS” for instantaneous loss of TSF where a B score of 0.0 occurred at or immediately after the first muscle contraction, “FT” for a fast loss of TSF, and “SL” for a slow loss of TSF. In some examples the minimum B score measured at or near the last muscle contraction was recorded as the “BM” score using the same scoring parameters as for the B score. […] In some examples the ease to achieve ejaculation was recorded as the “DE” score, with a score of 1.0 being ejaculation achieved with some difficulty, 2.0 being a typical/normal ease of ejaculation, and a 3.0 being of the ease of ejaculation was promoted. […] When a score (e.g., C, CT, A, B, BM, BS, D, DE) was not recorded or not applicable then “N/A” is listed for that score and that score was not used (no numeric score) for mathematical evaluations in such an occurrence.
Dietary vitamins and nutritional supplements were ingested about 7:00 AM to about 10:30 AM with coffee, and coffee consumption ended by about 12:00 PM or earlier. No food was ingested during the day before measurements as only one meal a day is typically eaten in the evening.
Measurements were made in the morning from about 7:30 AM until about 11:30 AM.
Dietary vitamins and nutritional supplements were ingested about 7:00 AM to about 10:30 AM with coffee, and coffee consumption ended by about 12:00 PM or earlier.
No food, dietary vitamins or nutritional supplements were ingested the day of the measurements until after the measurements were taken.

In data set [1] (listed as T38:18), `NCCCS(=O)(=O)O` [Example T38: 18, Homotaurine] registered a C score of 1.0, an A score of 9.2 and a B score of 9.2.

Regarding `NCCCS(=O)(=O)O` [T37:56, Homotaurine], in data set [1], the A score was 7.5, the B score was determined as 7.5 and the C score was 1.2.

Turning to `COc1ccc(-c2oc3c(CC=C(C)C)c(O[C@@H]4O[C@H](CO)[C@@H](O)[C@H](O)[C@H]4O)cc(O)c3c(=O)c2O[C@@H]2O[C@@H](C)[C@H](O)[C@@H](O)[C@H]2O)cc1` [icariin, Icariin], the “C, A and B scores when combined with Val and NAC” value in data set [1] (at 60 minutes) is “C score below a preferred C score and A and B scores that matched the lowest A and B scores of Val and NAC alone”.

On to `NCC(CC(=O)O)c1ccccc1` (centres unmarked) [phenibut, Phenibut HCl], for which the “effect on TSF, stated in words” value in data set [1] is listed as “weaker effect on improving A/B TSF scores”.

For `CC(C)(C)NC(=O)[C@H]1CC[C@H]2[C@@H]3CC[C@H]4NC(=O)C=C[C@]4(C)[C@H]3CC[C@]12C` [Finasteride, reference compound], the “TSF when both paroxetine and finasteride were ingested” value in data set [1] (oral, per prescription) is on record as “complete lack of TSF”. For the same compound, the “effect on TSF while ingesting the drug” value in data set [1] (oral, per prescription, inventor before SRSS) is reported as “moderately reduced TSF”.

As to `NCCCS(=O)(=O)O` [Example T38: 5, Homotaurine], in data set [1] (listed as T38:5), the C score is recorded as 1.8, the A score stood at 9.5 and the B score is given as 9.5.

As to `COc1ccc2c3c1O[C@H]1C[C@@H](O)C=C[C@@]31CCN(C)C2` [Galantamine HBr, Galantamine Hydrobromide, reference compound], in the data set on ejaculation/orgasm, the “effect on D/DE scores, stated in words” value was “generally had improved D/DE scores”; the “time after ingestion at which the increase in DE score may peak” value is reported as “about 40 minutes”; the “average D score” value is listed as “about 3.6”; the “average DE score” value was 2.4.

Regarding `NCCCC(=O)O` [GABA, gamma-aminobutyric acid], in data set [1], the “effect on TSF, stated in words” value is listed as “mild improvement in TSF relative to Val”.

On to `CC(=O)N[C@@H](CCC(N)=O)C(=O)O` [AcetylGln, N-Acetyl L-Glutamine], for which the “effect on TSF, stated in words” value in data set [1] is “relatively weak effect”.

`CCNC(=O)CC[C@H](N)C(=O)O` [theanine, Theanine]: the “number of Examples with failure to ejaculate” value in the data set with ejaculation/orgasm (of 14 Examples having theanine as a treatment substance, 12 failures in all Examples) is on record as 3.

Take `CC(=O)N[C@@H](CS)C(=O)O` [NAC, N-Acetyl-Cysteine, reference compound]: the “effect on TSF, stated in words” value in data set [1] is “no positive effect was noticed on TSF”.

Regarding `CN[C@H](CC(=O)O)C(=O)O` [NMDA, N-Methyl-D-Aspartic Acid, reference compound], the “effect on TSF, stated in words” value in data set [1] is reported as “negative effect on TSF scores”.

As for `CC(C)[C@H](N)C(=O)O` [Val, Valine], the “effect on TSF, stated in words” value in data set [1] is “stronger improvement in TSF than either Leu or Ile”.

For `Fc1ccc([C@@H]2CCNC[C@H]2COc2ccc3c(c2)OCO3)cc1` [paroxetine, reference compound], the “TSF after discontinuing paroxetine use” value in data set [1] (finasteride continued) is reported as “absence of TSF continued much to most of the time”. In addition, the “TSF when both paroxetine and finasteride were ingested” value in data set [1] (oral, per prescription) is “complete lack of TSF”.

For `NCCCS(=O)(=O)O` [T37:57, Homotaurine], in data set [1], the A score was 9.2, the B score came to 9.2 and the C score was found to be 1.2.

As for `C/C=C1\[C@H]2C=C(C)C[C@]1(N)c1ccc(=O)[nH]c1C2` [Huperzine A], in the data set on ejaculation/orgasm, the “effect on D/DE scores, stated in words” value is listed as “also had Examples of improved D/DE scores”; the “time after ingestion at which the increase in DE score may peak” value is “about 40 minutes”; the “average D score” value was found to be 3; the “average DE score” value turned out to be 1.9.
